Assay results reported in ChEMBL document CHEMBL3596139, “N-Arylalkylbenzo[d]thiazole-2-carboxamides as anti-mycobacterial agents: design, new methods of synthesis and biological evaluation” (Medchemcomm, 2014).
≈ marks a conversion by molar mass, not a printed value.

Experiments:
[1] = test system: Mycobacterium tuberculosis; experiment: Antimycobacterial activity against Mycobacterium tuberculosis H37Rv ATCC 27294 after 28 days by two-fold serial dilution method; assay type: functional; details: H37Rv ATCC 27294, 672 h
[2] = Cytotoxicity against HEK293T cells assessed as inhibition of cell viability at 50 ug/ml after 72 hrs by MTT assay relative to control; assay type: cell-based, HEK-293T; details: human, read-out: INH
[3] = Therapeutic index, ratio of compound cytotoxic activity for HEK293T cells to antimycobacterial activity against Mycobacterium tuberculosis H37Rv ATCC 27294; assay type: cell-based, HEK-293T; details: human, read-out: TI

`O=C(NCc1ccccc1)c1nc2ccccc2s1` showed an MIC99 [1] of 3.12 µg/mL (≈ 11.6 µM) and a cytotoxicity at 72 h, 50 ug/ml [2] of 41.2%.
Compound `O=C(NCc1ccc2c(c1)OCO2)c1nc2cc(Cl)ccc2s1` has an MIC99 [1] of 25 µg/mL (≈ 72.1 µM).
Work on `O=C(NCc1ccccc1F)c1nc2ccccc2s1` yielded an MIC99 [1] of 25 µg/mL (≈ 87.3 µM).
Work on `O=C(NCc1cccc(F)c1)c1nc2ccccc2s1` yielded an MIC99 [1] of 6.25 µg/mL (≈ 21.8 µM) and a cytotoxicity at 72 h, 50 ug/ml [2] of 44.6%.
`O=C(NCc1ccc(F)cc1)c1nc2ccccc2s1` showed an MIC99 [1] of 6.25 µg/mL (≈ 21.8 µM) and a cytotoxicity at 72 h, 50 ug/ml [2] of 50.3%.
In the case of `O=C(NCc1ccc(F)cc1F)c1nc2ccccc2s1`, the MIC99 [1] is reported as 25 µg/mL (≈ 82.2 µM).
In the case of `O=C(NCc1cc(F)ccc1F)c1nc2ccccc2s1`, the MIC99 [1] is reported as 6.25 µg/mL (≈ 20.5 µM) and the cytotoxicity at 72 h, 50 ug/ml [2] is reported as 52.1%.
With `O=C(NCc1ccc(F)c(F)c1)c1nc2ccccc2s1` the MIC99 [1] was 25 µg/mL (≈ 82.2 µM).
With `O=C(NCc1ccccc1Cl)c1nc2ccccc2s1` the MIC99 [1] was 6.25 µg/mL (≈ 20.6 µM) and the cytotoxicity at 72 h, 50 ug/ml [2] was 35.6%.
Compound `O=C(NCc1cccc(Cl)c1)c1nc2ccccc2s1` has an MIC99 [1] of 50 µg/mL (≈ 165 µM).
Work on `O=C(NCc1ccc(Cl)cc1)c1nc2ccccc2s1` yielded an MIC99 [1] of 50 µg/mL (≈ 165 µM).
Compound `O=C(NCc1ccc(Cl)cc1Cl)c1nc2ccccc2s1` has an MIC99 [1] of 50 µg/mL (≈ 148 µM).
In the case of `Cc1ccccc1CNC(=O)c1nc2ccccc2s1`, the MIC99 [1] is reported as 12.5 µg/mL (≈ 44.3 µM) and the cytotoxicity at 72 h, 50 ug/ml [2] is reported as 42.6%.
In the case of `Cc1ccc(CNC(=O)c2nc3ccccc3s2)cc1`, the MIC99 [1] is reported as 50 µg/mL (≈ 177 µM).
For `COc1ccc(CNC(=O)c2nc3ccccc3s2)cc1`, the MIC99 [1] was 25 µg/mL (≈ 83.8 µM).
`COc1ccccc1CNC(=O)c1nc2ccccc2s1` showed an MIC99 [1] of 50 µg/mL (≈ 168 µM).
`COc1ccc(CNC(=O)c2nc3ccccc3s2)cc1OC` showed an MIC99 [1] of 12.5 µg/mL (≈ 38.1 µM) and a cytotoxicity at 72 h, 50 ug/ml [2] of 19.1%.
`COc1ccc(CNC(=O)c2nc3ccccc3s2)c(OC)c1` showed an MIC99 [1] of 50 µg/mL (≈ 152 µM).
With `COc1ccc(CNC(=O)c2nc3ccccc3s2)cc1O` the MIC99 [1] was 25 µg/mL (≈ 79.5 µM).
Compound `CC(C)(C)c1ccc(CNC(=O)c2nc3ccccc3s2)cc1` has an MIC99 [1] of 50 µg/mL (≈ 154 µM).
In the case of `O=C(NCc1ccc(C(F)(F)F)cc1)c1nc2ccccc2s1`, the MIC99 [1] is reported as 12.5 µg/mL (≈ 37.2 µM) and the cytotoxicity at 72 h, 50 ug/ml [2] is reported as 36.7%.
Compound `N#Cc1ccc(CNC(=O)c2nc3ccccc3s2)cc1` has an MIC99 [1] of 12.5 µg/mL (≈ 42.6 µM) and a cytotoxicity at 72 h, 50 ug/ml [2] of 36%.
`O=C(NCc1ccc([N+](=O)[O-])cc1)c1nc2ccccc2s1` gave an MIC99 [1] of 12.5 µg/mL (≈ 39.9 µM) and a cytotoxicity at 72 h, 50 ug/ml [2] of 38.1%.
`O=C(NCc1ccc2c(c1)OCO2)c1nc2ccccc2s1` showed an MIC99 [1] of 6.25 µg/mL (≈ 20 µM) and a cytotoxicity at 72 h, 50 ug/ml [2] of 16.1%.
`O=C(NCCc1ccccc1)c1nc2ccccc2s1` gave an MIC99 [1] of 3.12 µg/mL (≈ 11.1 µM) and a cytotoxicity at 72 h, 50 ug/ml [2] of 22%.
`Nc1ccc(CCNC(=O)c2nc3ccccc3s2)cc1` gave an MIC99 [1] of 25 µg/mL (≈ 84.1 µM).
`COc1ccc(CCNC(=O)c2nc3ccccc3s2)cc1OC` gave an MIC99 [1] of 25 µg/mL (≈ 73 µM).
Work on `O=C(NCc1ccccc1)c1nc2cc(Cl)ccc2s1` yielded an MIC99 [1] of 6.25 µg/mL (≈ 20.6 µM) and a cytotoxicity at 72 h, 50 ug/ml [2] of 40.1%.
`O=C(NCc1ccc(F)cc1)c1nc2cc(Cl)ccc2s1` showed an MIC99 [1] of 25 µg/mL (≈ 77.9 µM).
For `O=C(NCc1cc(F)ccc1F)c1nc2cc(Cl)ccc2s1`, the MIC99 [1] was 0.78 µg/mL (≈ 2.3 µM), the cytotoxicity at 72 h, 50 ug/ml [2] was 32.2% and the selectivity ratio [3] was > 64.
With `O=C(NCc1ccccc1Cl)c1nc2cc(Cl)ccc2s1` the MIC99 [1] was 12.5 µg/mL (≈ 37.1 µM) and the cytotoxicity at 72 h, 50 ug/ml [2] was 36%.
`O=C(NCc1cccc(Cl)c1)c1nc2cc(Cl)ccc2s1` showed an MIC99 [1] of 25 µg/mL (≈ 74.1 µM).
With `O=C(NCc1ccc(Cl)cc1)c1nc2cc(Cl)ccc2s1` the MIC99 [1] was 25 µg/mL (≈ 74.1 µM).
In the case of `COc1ccccc1CNC(=O)c1nc2cc(Cl)ccc2s1`, the MIC99 [1] is reported as 12.5 µg/mL (≈ 37.6 µM) and the cytotoxicity at 72 h, 50 ug/ml [2] is reported as 38.9%.
In the case of `COc1ccc(CNC(=O)c2nc3cc(Cl)ccc3s2)cc1OC`, the MIC99 [1] is reported as 6.25 µg/mL (≈ 17.2 µM) and the cytotoxicity at 72 h, 50 ug/ml [2] is reported as 36.1%.
For `Nc1ccc(CCNC(=O)c2nc3cc(Cl)ccc3s2)cc1`, the MIC99 [1] was 1.56 µg/mL (≈ 4.7 µM) and the cytotoxicity at 72 h, 50 ug/ml [2] was 25.9%.
In the case of `COc1ccc(CCNC(=O)c2nc3cc(Cl)ccc3s2)cc1OC`, the MIC99 [1] is reported as 12.5 µg/mL (≈ 33.2 µM) and the cytotoxicity at 72 h, 50 ug/ml [2] is reported as 30.9%.
Work on `O=C(NCc1ccccc1)c1nc2cc(C(F)(F)F)ccc2s1` yielded an MIC99 [1] of 6.25 µg/mL (≈ 18.6 µM) and a cytotoxicity at 72 h, 50 ug/ml [2] of 40.1%.
`O=C(NCc1ccc(F)cc1)c1nc2cc(C(F)(F)F)ccc2s1` gave an MIC99 [1] of 12.5 µg/mL (≈ 35.3 µM) and a cytotoxicity at 72 h, 50 ug/ml [2] of 38.7%.
With `Nc1ccc(CCNC(=O)c2nc3cc(C(F)(F)F)ccc3s2)cc1` the MIC99 [1] was 50 µg/mL (≈ 137 µM).
With `COc1ccc(CCNC(=O)c2nc3cc(C(F)(F)F)ccc3s2)cc1OC` the MIC99 [1] was 25 µg/mL (≈ 60.9 µM).
Work on `CC[C@@H](CO)NCCN[C@@H](CC)CO` [ETHAMBUTOL] yielded an MIC99 [1] of 1.56 µg/mL (≈ 7.64 µM).
`NNC(=O)c1ccncc1` [ISONIAZID] showed an MIC99 [1] of 0.098 µg/mL (≈ 0.715 µM).
In the case of `NC(=O)c1cnccn1` [PYRAZINAMIDE], the MIC99 [1] is reported as 6.25 µg/mL (≈ 50.8 µM).
In the case of `CO[C@H]1/C=C/O[C@@]2(C)Oc3c(C)c(O)c4c(O)c(c(/C=N/N5CCN(C)CC5)c(O)c4c3C2=O)NC(=O)/C(C)=C\C=C\[C@H](C)[C@H](O)[C@@H](C)[C@@H](O)[C@@H](C)[C@H](OC(C)=O)[C@@H]1C` [RIFAMPIN], the MIC99 [1] is reported as 0.197 µg/mL (≈ 0.239 µM).
